Measurements as given in publication PMC10576769 (Nature Communications, 2023).
Several values for one entry are separate records, joined by “and”; a condition that tells them apart may be missing. Identical values can stand only once. Like-named read-outs stand apart in the source and are kept apart here. Where a SMILES comes first, the peptide text is derived from it.

Key:
[1] = type: binding; details: pH 6.5
CpPC-PLC [2] = type: biochemical, Clostridium perfringens
LmPC-PLC = LmPC-PLC (Listeria monocytogenes serovar 1/2a, UniProt P33378); test: biochemical; type: biochemical; details: for Enzymatic activity towards 4-NPPC (slope): Lm 500 nM, 0 = no slope could be determined; for Enzymatic activity towards 4-NPPC (slope) / Activity of LmPC-PLC towards 4-NPPC (slope): 4-NPPC 1 mM; for Activity of LmPC-PLC towards 4-NPPC (slope): LmPC-PLC 500 nM, 20 mM MES pH 6.5, 150 mM NaCl, 50 μM ZnSO4
BcPC-PLC [3] = type: biochemical, Bacillus cereus
LmPC-PLC^C143S = type: biochemical, Listeria monocytogenes; details: Fig. 4g, as E100
CpPC-PLC [4] = type: biochemical, Clostridium perfringens; remark: listed apart in the source
LmPC-PLC^C143S+C168S = type: biochemical, Listeria monocytogenes; details: Fig. 4g, as E100
BcPC-PLC [5] = type: biochemical, Bacillus cereus; remark: listed apart in the source
LmPC-PLC^C168S = type: biochemical, Listeria monocytogenes; details: Fig. 4g, as E100

SMILES: c1cnc2c(c1)ccc1cccnc12 [O-phe, O-phenanthroline]
- % of LLO in the pellet fraction [1]: 22.84%
- Enzymatic activity towards 4-NPPC (slope) (CpPC-PLC [2]): 0
- Enzymatic activity towards 4-NPPC (slope) (LmPC-PLC; O-phe 1 mM + ions (50 μM ZnSO4), replicate 1): 0
- Enzymatic activity towards 4-NPPC (slope) (LmPC-PLC; O-phe 1 mM + ions (50 μM ZnSO4), replicate 2): 0
- Enzymatic activity towards 4-NPPC (slope) (LmPC-PLC; O-phe 1 mM + ions (50 μM ZnSO4), replicate 3): 0
- Enzymatic activity towards 4-NPPC (slope) (LmPC-PLC; O-phe 1 mM, no ions added, replicate 1): 0
- Enzymatic activity towards 4-NPPC (slope) (LmPC-PLC; O-phe 1 mM, no ions added, replicate 2): 0
- Enzymatic activity towards 4-NPPC (slope) (LmPC-PLC; O-phe 1 mM, no ions added, replicate 3): 0
- inhibition of LmPC-PLC activity by O-phe (LmPC-PLC; O-phe 1 mM, 50 μM Zn2+ added to the protein, 30 min preincubation, 4-NPPC, Supplementary Fig. 9c): completely inhibited
- Activity of LmPC-PLC towards 4-NPPC (slope) (LmPC-PLC; inhibitor 4 uM, replicate 1 of N=3): 0.0003865 abs/min
- Activity of LmPC-PLC towards 4-NPPC (slope) (LmPC-PLC; inhibitor 4 uM, replicate 2 of N=3): 0.0003893 abs/min
- Activity of LmPC-PLC towards 4-NPPC (slope) (LmPC-PLC; inhibitor 4 uM, replicate 3 of N=3): 0.0004002 abs/min
- Activity of LmPC-PLC towards 4-NPPC (slope) (LmPC-PLC; inhibitor 8 uM, replicate 1 of N=3): 0.0003883 abs/min
- Activity of LmPC-PLC towards 4-NPPC (slope) (LmPC-PLC; inhibitor 8 uM, replicate 2 of N=3): 0.0003708 abs/min
- Activity of LmPC-PLC towards 4-NPPC (slope) (LmPC-PLC; inhibitor 8 uM, replicate 3 of N=3): 0.0003802 abs/min
- Activity of LmPC-PLC towards 4-NPPC (slope) (LmPC-PLC; inhibitor 16 uM, replicate 1 of N=3): 0.0003736 abs/min
- Activity of LmPC-PLC towards 4-NPPC (slope) (LmPC-PLC; inhibitor 16 uM, replicate 2 of N=3): 0.0003589 abs/min
- Activity of LmPC-PLC towards 4-NPPC (slope) (LmPC-PLC; inhibitor 16 uM, replicate 3 of N=3): 0.0003489 abs/min
- Activity of LmPC-PLC towards 4-NPPC (slope) (LmPC-PLC; inhibitor 31 uM, replicate 1 of N=3): 0.0003148 abs/min
- Activity of LmPC-PLC towards 4-NPPC (slope) (LmPC-PLC; inhibitor 31 uM, replicate 2 of N=3): 0.0003263 abs/min
- Activity of LmPC-PLC towards 4-NPPC (slope) (LmPC-PLC; inhibitor 31 uM, replicate 3 of N=3): 0.0003082 abs/min
- Activity of LmPC-PLC towards 4-NPPC (slope) (LmPC-PLC; inhibitor 63 uM, replicate 1 of N=3, value 0 = no slope could be determined): 0.0002666 abs/min
- Activity of LmPC-PLC towards 4-NPPC (slope) (LmPC-PLC; inhibitor 63 uM, replicate 2 of N=3, value 0 = no slope could be determined): 0.0002954 abs/min
- Activity of LmPC-PLC towards 4-NPPC (slope) (LmPC-PLC; inhibitor 63 uM, replicate 3 of N=3, value 0 = no slope could be determined): 0.000224 abs/min
- Activity of LmPC-PLC towards 4-NPPC (slope) (LmPC-PLC; inhibitor 125 uM, replicate 1 of N=3, value 0 = no slope could be determined): 8.381e-5 abs/min
- Activity of LmPC-PLC towards 4-NPPC (slope) (LmPC-PLC; inhibitor 125 uM, replicate 2 of N=3, value 0 = no slope could be determined): 0.0001203 abs/min
- Activity of LmPC-PLC towards 4-NPPC (slope) (LmPC-PLC; inhibitor 125 uM, replicate 3 of N=3, value 0 = no slope could be determined): 8.369e-5 abs/min
- Enzymatic activity towards 4-NPPC (slope) (BcPC-PLC [3]): 0

SMILES: C[C@H](NC(=O)[C@@H](N)CC(N)=O)C(=O)N[C@@H](CS)C(=O)N[C@@H](CS)C(=O)N[C@@H](CC(=O)O)C(=O)N[C@@H](CCC(=O)O)C(=O)O [NE-6] (H-NACCDE-OH; N-terminus and C-terminus assumed)
- relative activity of LmPC-PLC C143S on 4-NPPC (compared to uninhibited activity) (LmPC-PLC^C143S; replicate 1): 0.8443
- relative activity of LmPC-PLC C143S on 4-NPPC (compared to uninhibited activity) (LmPC-PLC^C143S; replicate 2): 0.9328
- relative activity of LmPC-PLC C143S on 4-NPPC (compared to uninhibited activity) (LmPC-PLC^C143S; replicate 3): 0.9098
- relative activity on POPC (compared to uninhibited activity), Cp (CpPC-PLC [4]): 1.136 and 1.059 and 1.144
- relative activity on 4-NPPC (compared to uninhibited activity), Cp (CpPC-PLC [2]): 0.8963 and 0.9574 and 0.885
- relative activity of LmPC-PLC C143S+ C168S on 4-NPPC (compared to uninhibited activity) (LmPC-PLC^C143S+C168S; replicate 1): 1.106
- relative activity of LmPC-PLC C143S+ C168S on 4-NPPC (compared to uninhibited activity) (LmPC-PLC^C143S+C168S; replicate 2): 1.078
- relative activity of LmPC-PLC C143S+ C168S on 4-NPPC (compared to uninhibited activity) (LmPC-PLC^C143S+C168S; replicate 3): 1.062
- relative activity on 4-NPPC (compared to uninhibited activity), Bc (BcPC-PLC [3]): 0.9308 and 0.8774 and 0.8898
- relative activity on POPC (compared to uninhibited activity), Bc (BcPC-PLC [5]): 1.041 and 0.8984 and 0.9777
- relative activity of LmPC-PLC C168S on 4-NPPC (compared to uninhibited activity) (LmPC-PLC^C168S; replicate 1): 0.4893
- relative activity of LmPC-PLC C168S on 4-NPPC (compared to uninhibited activity) (LmPC-PLC^C168S; replicate 2): 0.5344
- relative activity of LmPC-PLC C168S on 4-NPPC (compared to uninhibited activity) (LmPC-PLC^C168S; replicate 3): 0.4659
